# Source: US20200222323A1, “ADRENALIN-CONTAINING DOUBLE LAYERED LIPID VESICLES FOR USE IN THE TREATMENT OF CARDIAC EMERGENCIES” (UNIVERSITÀ DEGLI STUDI DI CAGLIARI, priority 2017, published 2020)
# What was measured:
# [1] = cited from earlier work
# [2] = system: human umbilical vein endothelial cells (HUVECs); conditions: HUVEC, 5 hours treatment, adrenaline 3-120 μg/ml, MTT
# Description: The biocompatibility of the formulation was tested on human umbilical vein endothelial cells (HUVECs) obtained from a pool of healthy donors (Promocell, Germany). The cells were cultured in Endothelial Cell Growth Medium 2 (ECGM 2, Promocell) enriched with penicillin (50 units/ml) and streptomycin (50 mg/ml), and maintained in an incubator with a humidified atmosphere, CO2 (5%) at 37° C. The cells were seeded in 96-well plates 24 hours before the treatment with liposomes (density 4×10^4 cells/well). […] At the end of the treatment, the medium was removed and replaced with 100 μl of a solution of 3-(4,5-dimethylthiazol-2-yl)-2,5-diphenyltetrazolium bromide (MTT) in PBS (0.5 mg/ml). After 4 hours of incubation at 37° C., the MTT was removed and 100 μl of dimethyl sulphoxide (DMSO) was added in each well. Absorbance was measured at 570 nm by means of a Synergy 4 plate reader (BioTek, Winooski, Vt., USA). The results are expressed as a percentage of viable cells compared to the untreated cells.
# [3] = control solution, same conditions, PBS pH 7.4, 37° C.
# Description: The in vitro studies on the release of adrenaline from the liposomal formulations were conducted with a modified dialysis technique or by means of a “sample and separate” method.
# In the former case, a cellulose membrane (Spectra/Por®: cut-off 12-14 kDa MW, pore size 3 nm, Spectrum Laboratories Inc., USA) was positioned between the two compartments of a Franz vertical diffusion cell (Rofarma, Milan). The receptor compartment, with a capacity of 6.5 ml and a diffusion area of 0.636 cm2, was filled with a phosphate buffer solution (PBS pH 7.4) containing sodium metabisulphite (0.053 M), stirred constantly by a small magnetic stirrer at a controlled temperature of 37° C. for the whole duration of the experiment.
# At 1-hour time intervals, for the 8 hours of the experiment, 1 ml of the solution in the receptor compartment was removed and restored with fresh buffer. The amount of adrenaline contained in the samples removed was analysed by HPLC.
# Use was made of an XTerra C18 column (3.5 μiη, 4.6×150 mm, Waters), with a mobile phase composed of 86.5% water, 13.45% acetonitrile and 0.05% acetic acid (v/v) at a flow rate of 0.8 ml/min. A calibration curve was constructed using standard solutions (100-1 ng/μl), having a correlation coefficient (R2) of 0.999.
structure (smiles),measurement,setting,value
CNCC(O)c1ccc(O)c(O)c1 (stereo not drawn) [adrenaline],half-life in vivo,[1],≤ 5 min
same,viability of treated versus untreated cells,[2],no significant difference
same,total amount of drug released after the 8 hours of the experiment,[3],70±3%
